Patent EP4818172A1, “ASCORBIC ACID DERIVATIVES AND COSMETIC CONTAINING SAME” (Seiwa Kasei Co., Ltd., priority 2023, dated 2025)

What was measured:
[1] = Stability test -2: residual rate in cream of pH 7 or 9 stored at 50°C; type: physicochemical; conditions: cream with 4.0 W/W% derivative
Method: (§1) For each of the samples of Synthesis Examples 9 to 32, (a) and (b) shown in Table 12 were each heated and mixed. After cooling, (c) shown in Table 12 was added to prepare a cream with a pH of 7 or 9. The sample was stored at 50°C for 4 weeks, and the residual rate was determined in the same manner as in Test Example 1 and evaluated according to the criteria described below. The odor and coloration were also evaluated according to the same method and criteria as in Test Example 1. The results regarding the residual rate are shown in Tables 13 and 14, and the results regarding the odor and coloration are shown in Tables 15 and 16.
• ⊚: 95% or more • ○: 85% or more, less than 95% • ×: Less than 85% [Table 12]

[2] = Stability test -2: odor and coloration of cream stored at 50°C; type: physicochemical; conditions: Test Example 2, cream stored at 50°C, total score of 10 panelists
Method: For each of the samples of Synthesis Examples 1 to 6, 1% aqueous solutions were adjusted to pH 3, 5, 7, 8, and 9 with a dilute potassium hydroxide aqueous solution, and then placed in 50 mL screw tubes and • 2: Color changes compared to immediately after preparation. • 1: Strongly colored compared to immediately after preparation. Based on the results of the above evaluation, the following classification was made: • ○: Total score of 10 panelists is 25 or more • △: Total score of 10 panelists is 16-24 • ×: The total score of 10 panelists is 15 or less [Table 10]
as §1

[3] = test system: Normal human dermal fibroblasts (NHDF); test: Hyaluronic acid production promoting effect (ELISA of supernatant); type: cell-based; conditions: sample at 10 mM or less in serum-free D-MEM, cultured 48 hours, % of control group (100%), N=3
Method: Normal human dermal fibroblasts (NHDF) were prepared in D-MEM containing 5% (v/v) fetal bovine serum to a cell density of 2.5 × 10^4 cells/well, and then pre-incubated on a 96-well plate for 24 hours. After removing the medium, samples prepared in serum-free D-MEM were added to each well and cultured for 48 hours. After the culture was completed, the amount of hyaluronic acid in the supernatant was quantified by ELISA. Measurements were performed in triplicate (N=3).
The amount of hyaluronic acid produced when the sample was measured at a concentration of 10 mM or less was compared with that of the control group, and the results (% values when the control group is set to 100%) are shown in Tables 18 to 20 based on the following criteria. • <100%: ± • 100-120%: + • 120%<: ++ [Table 18]

SMILES: CCCCCCCCCCCCCCCC(=O)OCC(OC(=O)CCC)C1OC(=O)C2=C1OCCCO2 (centres unmarked) [Synthesis Example 30, 5-O-butanoyl-6-O-palmitoyl-2,3-O-(1,3-propanediyl) ascorbic acid]
- Residual Rate After 2 weeks ([1]; pH7, stored at 50°C): ⊚ (95% or more)
- Residual Rate After 4 weeks ([1]; pH7, stored at 50°C): ⊚ (95% or more)
- Residual Rate After 2 weeks ([1]; pH9, stored at 50°C): ⊚ (95% or more)
- Residual Rate After 4 weeks ([1]; pH9, stored at 50°C): ⊚ (95% or more)
- Coloration After 2 weeks [2]: ○ (Total score of 10 panelists is 25 or more)
- Odor After 2 weeks [2]: ○ (Total score of 10 panelists is 25 or more)
- Coloration After 4 weeks [2]: ○ (Total score of 10 panelists is 25 or more)
- Odor After 4 weeks [2]: Δ

SMILES: CC1(C)COC2=C(O1)C(C(O)CO)OC2=O (centres unmarked) [synthesis example 7, 2,3-O-(2,2-dimethyl-1,2-ethanediyl) ascorbic acid]
- Hyaluronic acid production-promoting effect [3]: + (100-120%)

SMILES: O=C1OC(C(O)COCc2ccccc2)C2=C1OCCCCO2 (centres unmarked) [synthetic example 39, 6-O-benzyl-2,3-O-(1,4-butanediyl) ascorbic acid]
- Hyaluronic acid production-promoting effect [3]: + (100-120%)

SMILES: CCCCCCCCCCCCCCCC(=O)OC[C@H](O)[C@H]1OC(=O)C(OP(=O)(O)O)=C1O [Ascorbyl phosphate 3Na palmitate, reference compound]
- Hyaluronic acid production-promoting effect [3]: ± (<100%)

SMILES: CCCCCCCCCCCCCCCC(=O)OCC(O)C1OC(=O)C2=C1OCCCO2 (centres unmarked) [synthesis example 26, 6-O-palmitoyl-2,3-O-(1,3-propanediyl) ascorbic acid]
- Residual Rate After 2 weeks ([1]; pH7, stored at 50°C): ⊚ (95% or more)
- Residual Rate After 4 weeks ([1]; pH7, stored at 50°C): ⊚ (95% or more)
- Residual Rate After 2 weeks ([1]; pH9, stored at 50°C): ⊚ (95% or more)
- Residual Rate After 4 weeks ([1]; pH9, stored at 50°C): ○ (85% or more, less than 95%)
- Hyaluronic acid production-promoting effect [3]: ++ (120%<)
- Coloration After 2 weeks [2]: ○ (Total score of 10 panelists is 25 or more)
- Odor After 2 weeks [2]: ○ (Total score of 10 panelists is 25 or more)
- Coloration After 4 weeks [2]: Δ
- Odor After 4 weeks [2]: Δ

SMILES: CC(C)CCCCCCCCCCCCCCC(=O)OCC(OC(=O)CCCCCCCCCCCCCCC(C)C)C1OC(=O)C2=C1OCCO2 (centres unmarked) [Synthesis Example 32, 5,6-O-diisostearoyl-2,3-O-(1,2-ethanediyl) ascorbic acid]
- Residual Rate After 2 weeks ([1]; pH7, stored at 50°C): ⊚ (95% or more)
- Residual Rate After 4 weeks ([1]; pH7, stored at 50°C): ⊚ (95% or more)
- Residual Rate After 2 weeks ([1]; pH9, stored at 50°C): ⊚ (95% or more)
- Residual Rate After 4 weeks ([1]; pH9, stored at 50°C): ⊚ (95% or more)
- Hyaluronic acid production-promoting effect [3]: + (100-120%)
- Coloration After 2 weeks [2]: ○ (Total score of 10 panelists is 25 or more)
- Odor After 2 weeks [2]: ○ (Total score of 10 panelists is 25 or more)
- Coloration After 4 weeks [2]: ○ (Total score of 10 panelists is 25 or more)
- Odor After 4 weeks [2]: Δ

SMILES: CCCCCCCC(=O)OCC(O)C1OC(=O)C2=C1OCCCO2 (centres unmarked) [synthesis example 22, 6-O-octanoyl-2,3-O-(1,3-propanediyl) ascorbic acid]
- Residual Rate After 2 weeks ([1]; pH7, stored at 50°C): ⊚ (95% or more)
- Residual Rate After 4 weeks ([1]; pH7, stored at 50°C): ⊚ (95% or more)
- Residual Rate After 2 weeks ([1]; pH9, stored at 50°C): ⊚ (95% or more)
- Residual Rate After 4 weeks ([1]; pH9, stored at 50°C): ⊚ (95% or more)
- Hyaluronic acid production-promoting effect [3]: ++ (120%<)
- Coloration After 2 weeks [2]: ○ (Total score of 10 panelists is 25 or more)
- Odor After 2 weeks [2]: ○ (Total score of 10 panelists is 25 or more)
- Coloration After 4 weeks [2]: ○ (Total score of 10 panelists is 25 or more)
- Odor After 4 weeks [2]: Δ

SMILES: CC(C)CCCCCCCCCCCCCCC(=O)OCC(O)C1OC(=O)C2=C1OCCO2 (centres unmarked) [synthesis example 31, 6-O-isostearoyl-2,3-O-(1,2-ethanediyl) ascorbic acid]
- Residual Rate After 2 weeks ([1]; pH7, stored at 50°C): ⊚ (95% or more)
- Residual Rate After 4 weeks ([1]; pH7, stored at 50°C): ⊚ (95% or more)
- Residual Rate After 2 weeks ([1]; pH9, stored at 50°C): ⊚ (95% or more)
- Residual Rate After 4 weeks ([1]; pH9, stored at 50°C): ⊚ (95% or more)
- Hyaluronic acid production-promoting effect [3]: ++ (120%<)
- Coloration After 2 weeks [2]: ○ (Total score of 10 panelists is 25 or more)
- Odor After 2 weeks [2]: ○ (Total score of 10 panelists is 25 or more)
- Coloration After 4 weeks [2]: ○ (Total score of 10 panelists is 25 or more)
- Odor After 4 weeks [2]: Δ

SMILES: CCCCCCCCCCCCCCCC(=O)OCC(OC(=O)CCCCCCCCCCCCCCC)C1OC(=O)C2=C1OCCCCO2 (centres unmarked) [synthetic example 16, 5,6-O-dipalmitoyl-2,3-O-(1,4-butanediyl) ascorbic acid]
- Residual Rate After 2 weeks ([1]; pH7, stored at 50°C): ⊚ (95% or more)
- Residual Rate After 4 weeks ([1]; pH7, stored at 50°C): ⊚ (95% or more)
- Residual Rate After 2 weeks ([1]; pH9, stored at 50°C): ⊚ (95% or more)
- Residual Rate After 4 weeks ([1]; pH9, stored at 50°C): ⊚ (95% or more)
- Hyaluronic acid production-promoting effect [3]: ++ (120%<)
- Coloration After 2 weeks [2]: ○ (Total score of 10 panelists is 25 or more)
- Odor After 2 weeks [2]: ○ (Total score of 10 panelists is 25 or more)
- Coloration After 4 weeks [2]: ○ (Total score of 10 panelists is 25 or more)
- Odor After 4 weeks [2]: Δ

SMILES: O=C1OC(C2COC(c3ccccc3)O2)C2=C1OCCCO2 (centres unmarked) [synthesis example 38, 5,6-O-(phenylmethylene)-2,3-O-(1,3-propanediyl) ascorbic acid]
- Hyaluronic acid production-promoting effect [3]: ++ (120%<)

SMILES: CC1(C)OCC(C2OC(=O)C3=C2OCCCCO3)O1 (centres unmarked) [synthesis example 35, 5,6-O-isopropylidene-2,3-O-(1,4-butanediyl) ascorbic acid]
- Hyaluronic acid production-promoting effect [3]: ++ (120%<)

SMILES: CCCCCCCC(=O)OCC(OC(=O)CCC)C1OC(=O)C2=C1OCCCCO2 (centres unmarked) [synthetic example 19, 5-O-butanoyl-6-O-octanoyl-2,3-O-(1,4-butanediyl) ascorbic acid]
- Residual Rate After 2 weeks ([1]; pH7, stored at 50°C): ⊚ (95% or more)
- Residual Rate After 4 weeks ([1]; pH7, stored at 50°C): ⊚ (95% or more)
- Residual Rate After 2 weeks ([1]; pH9, stored at 50°C): ⊚ (95% or more)
- Residual Rate After 4 weeks ([1]; pH9, stored at 50°C): ⊚ (95% or more)
- Coloration After 2 weeks [2]: ○ (Total score of 10 panelists is 25 or more)
- Odor After 2 weeks [2]: ○ (Total score of 10 panelists is 25 or more)
- Coloration After 4 weeks [2]: ○ (Total score of 10 panelists is 25 or more)
- Odor After 4 weeks [2]: Δ

SMILES: CC1(C)OCC(C2OC(=O)C3=C2OCCCO3)O1 (centres unmarked) [synthesis example 36, 5,6-O-isopropylidene-2,3-O-(1,3-propanediyl) ascorbic acid]
- Hyaluronic acid production-promoting effect [3]: ++ (120%<)

SMILES: O=C1OC(C2COC(c3ccccc3)O2)C2=C1OCCCCO2 (centres unmarked) [synthesis example 37, 5,6-O-(phenylmethylene)-2,3-O-(1,4-butanediyl) ascorbic acid]
- Hyaluronic acid production-promoting effect [3]: + (100-120%)

SMILES: CC1(C)COC2=C(O1)C(=O)OC2C(O)CO (centres unmarked) [synthetic example 8, 2,3-O-(1,1-dimethyl-1,2-ethanediyl) ascorbic acid]
- Hyaluronic acid production-promoting effect [3]: + (100-120%)

SMILES: CCCCCCCCC(CCCCCC)C(=O)OC[C@H](OC(=O)C(CCCCCC)CCCCCCCC)[C@H]1OC(=O)C(OC(=O)C(CCCCCC)CCCCCCCC)=C1OC(=O)C(CCCCCC)CCCCCCCC (some centres unmarked) [Ascorbyl tetrahexyldecanoate, reference compound]
- Residual Rate After 2 weeks ([1]; pH7, stored at 50°C): ○ (85% or more, less than 95%)
- Residual Rate After 4 weeks ([1]; pH7, stored at 50°C): × (Less than 85%)
- Residual Rate After 2 weeks ([1]; pH9, stored at 50°C): ○ (85% or more, less than 95%)
- Residual Rate After 4 weeks ([1]; pH9, stored at 50°C): × (Less than 85%)
- Coloration After 2 weeks [2]: ○ (Total score of 10 panelists is 25 or more)
- Odor After 2 weeks [2]: ○ (Total score of 10 panelists is 25 or more)
- Coloration After 4 weeks [2]: Δ
- Odor After 4 weeks [2]: Δ
